Measured values: patent US20150148422A1, “METHOD FOR […] AND METHOD FOR CLEANING SURFACES” (JSK Capital, LLC, priority 2012, published 2015)
Where two headings read alike, the source gives them in different places.

What was measured:
[1] = test system: Staphylococcus aureus (ATCC 6538P); conditions: initial log 5.34
Description: USP 51 challenges (inoculates) a formula with 5 different microorganisms, separately. Three bacteria and two fungal strains are used for each USP 51 test. Test microorganisms are grown in liquid or on solid medium, depending on the microorganism. Microorganisms used for a USP 51 test include: 1) Candida albicans (a yeast which is a form of fungus), 2) Aspergillus brasiliensis (a filamentous mold and also a fungus), 3) Escherichia coli (a bacterium better known as “E. coli”), 4) Pseudomonas aeruginosa (a bacterium that is problematic industrially), and 5) Staphylococcus aureus (a bacterium known as “Staph”).
The test microorganisms are either harvested by centrifugation from broth culture or by washing surface growth from a solid medium into a sterile vessel. The concentrations of test microorganisms are standardized by re-suspending harvested microorganisms in sterile saline to yield ˜1×10̂8 CFU/ml. […] A recovery analysis is performed to verify that microorganisms present in a sample can be adequately recovered and enumerated using the chosen dilution and plating scheme. A sufficient volume of test product (typically 10 ml) is distributed into each of 5 separate containers, and each container is inoculated with a separate test microorganism (mentioned above). The initial concentration of viable microorganisms in the test product is determined by standard dilution and plate count methods. […] The microorganism concentration at each interval is compared to the initial concentration, and then preservative effectiveness is determined based upon USP guidelines.
Here, a USP 51 test was conducted with the following parameters. For preparatory method suitability, validated recovery of organisms using TSB+IAA broth.

[2] = test system: Candida albicans (ATCC 10231); experiment: USP <51> antimicrobial effectiveness (challenge) test, C. albicans; type: cell-based; conditions: for Log C albicans: initial inoculum 9.4 × 10^5 cfu/mL = 5.97; for Log Change (C albicans), decrease in log 10 of organism from initial spike: initial log 5.97
Text: (§1) See Antimicrobial Test Laboratories description of USP 51 Test.

[3] = test system: Escherichia coli (ATCC 8739); experiment: USP <51> antimicrobial effectiveness (challenge) test, E. coli; type: cell-based; conditions: for Log E. coli: initial inoculum 5.0 × 10^5 cfu/mL = 5.70; for Log Change (E. coli), decrease in log 10 of organism from initial spike: initial log 5.70
Text: as §1

[4] = test system: Aspergillus brasiliensis (ATCC 16404); experiment: USP <51> antimicrobial effectiveness (challenge) test, A. brasiliensis; type: cell-based; conditions: for Log A brasiliensis: initial inoculum 2.6 × 10^5 cfu/mL = 5.41; for Log Change (A brasiliensis), decrease in log 10 of organism from initial spike: initial log 5.41
Text: as §1

Pseudomonas aeruginosa = experiment: USP <51> antimicrobial effectiveness (challenge) test, P. aeruginosa; type: cell-based; conditions: for Log P. aeruginosa: initial inoculum 2.9 × 10^5 cfu/mL = 5.46; for Log Change (P. aeruginosa), decrease in log 10 of organism from initial spike: initial log 5.46
Text: as §1

urea sulfate
Log Change (S aureus), decrease in log 10 of organism from initial spike ([1]; Day 1): >*4.34 log 10 | Log Change (S aureus), decrease in log 10 of organism from initial spike ([1]; Day 7): >*4.34 log 10 | Log Change (S aureus), decrease in log 10 of organism from initial spike ([1]; Day 14): >*4.34 log 10 | Log Change (S aureus), decrease in log 10 of organism from initial spike ([1]; Day 28): >*4.34 log 10 | Log C albicans ([2]; Day 1): <1 Log | Log Change (C albicans), decrease in log 10 of organism from initial spike ([2]; Day 1): >*4.97 log 10 | Log C albicans ([2]; Day 7): <1 Log | Log Change (C albicans), decrease in log 10 of organism from initial spike ([2]; Day 7): >*4.97 log 10 | Log C albicans ([2]; Day 14): <1 Log | Log Change (C albicans), decrease in log 10 of organism from initial spike ([2]; Day 14): >*4.97 log 10 | Log C albicans ([2]; Day 28): <1 Log | Log Change (C albicans), decrease in log 10 of organism from initial spike ([2]; Day 28): >*4.97 log 10 | change in the amount of Candida albicans ([2]; after a month): no measurable change | Log E. coli ([3]; Day 1): <1 Log | Log Change (E. coli), decrease in log 10 of organism from initial spike ([3]; Day 1): >*4.70 log 10 | Log E. coli ([3]; Day 7): <1 Log | Log Change (E. coli), decrease in log 10 of organism from initial spike ([3]; Day 7): >*4.70 log 10 | Log E. coli ([3]; Day 14): <1 Log | Log Change (E. coli), decrease in log 10 of organism from initial spike ([3]; Day 14): >*4.70 log 10 | Log E. coli ([3]; Day 28): <1 Log | Log Change (E. coli), decrease in log 10 of organism from initial spike ([3]; Day 28): >*4.70 log 10 | change in the amount of Escherichia coli ([3]; after a month): no measurable change | Log A brasiliensis ([4]; Day 1): <1 Log | Log Change (A brasiliensis), decrease in log 10 of organism from initial spike ([4]; Day 1): >*4.97 log 10 | Log A brasiliensis ([4]; Day 7): <1 Log | Log Change (A brasiliensis), decrease in log 10 of organism from initial spike ([4]; Day 7): >*4.97 log 10 | Log A brasiliensis ([4]; Day 14): <1 Log | Log Change (A brasiliensis), decrease in log 10 of organism from initial spike ([4]; Day 14): >*4.97 log 10 | Log A brasiliensis ([4]; Day 28): <1 Log | Log Change (A brasiliensis), decrease in log 10 of organism from initial spike ([4]; Day 28): >*4.97 log 10 | change in the amount of Aspergillus brasiliensis ([4]; after a month): no measurable change | Log P. aeruginosa (Pseudomonas aeruginosa; Day 1): <1 Log | Log Change (P. aeruginosa), decrease in log 10 of organism from initial spike (Pseudomonas aeruginosa; Day 1): >*4.46 log 10 | Log P. aeruginosa (Pseudomonas aeruginosa; Day 7): <1 Log | Log Change (P. aeruginosa), decrease in log 10 of organism from initial spike (Pseudomonas aeruginosa; Day 7): >*4.46 log 10 | Log P. aeruginosa (Pseudomonas aeruginosa; Day 14): <1 Log | Log Change (P. aeruginosa), decrease in log 10 of organism from initial spike (Pseudomonas aeruginosa; Day 14): >*4.46 log 10 | Log P. aeruginosa (Pseudomonas aeruginosa; Day 28): <1 Log | Log Change (P. aeruginosa), decrease in log 10 of organism from initial spike (Pseudomonas aeruginosa; Day 28): >*4.46 log 10 | change in the amount of Pseudomonas aeruginosa (Pseudomonas aeruginosa; after a month): no measurable change
